In patent publication US5411983A, “Certain hyrdoxy-phosphinyl-oxy-phenylmethyl-imidazolium hydroxide inner salts as PAF antagonists” (American Cyanamid Company, priority 1993, dated 1995):
Where a name gives a salt, the structure may show the parent alone. Read-outs that look alike come from different tables or passages of the source.

Molecular target: PAF receptor (Oryctolagus cuniculus, UniProt G1TEI7)
Assay: Inhibition of PAF induced platelet aggregation in rabbit platelet rich plasma (PRP)
Type: cell-based, rabbit (male New Zealand White)
Design: immediately centrifuged at 800 rpm for 10 minutes at room temperature to recover the platelet rich plasma (PRP); endogenous in cells; host or cells: rabbit platelets in platelet rich plasma (male New Zealand White rabbits)
Details: rabbit platelet rich plasma
Description: Platelet activating factor (PAF) compounds were evaluated as PAF receptor antagonists in vitro by measuring inhibition of PAF induced platelet aggregation. Platelet aggregation was measured by a modification of the method of A. Wissner, et. al., J. Med. Chem., 27, 1174, 1984.
Approximately 120-240 ml of blood were collected by cardiac puncture from unanesthetized male New Zealand White rabbits (Whaley's Summit View Farms, Belvedere, N.J.) with the use of 3.2% sodium citrate anticoagulant (1 part of citrate/10 parts of blood). All syringes and pipets were plastic. The blood was gently mixed and immediately centrifuged at 800 rpm for 10 minutes at room temperature to recover the platelet rich plasma (PRP). Platelet poor plasma (PPP) was prepared by centrifuging PRP at 2800 rpm for 10 minutes at room temperature.
Dilutions (1:3000) Of PRP in Isoton diluent were made and platelet counts were determined on a Coulter Thrombocounter which was standardized with platelet reference standards (Interscience Platelet Control, Portland, Oreg.). PRP platelet counts were adjusted to 500,000 platelets/μl by the addition of PPP.
L-PAF was obtained from Calbiochem. A stock solution of 1-2 E-3M was prepared in 10% ethanol in water and serial working dilutions were made using phosphate buffered saline (PBS). 1-2 E-3M stock solutions of test compounds were prepared in 100% methanol and serially diluted in PBS. All solutions were made up in plastic tubes, stored on ice and protected from heat and light. Solutions were prepared fresh or frozen at -20° C. and used within 48 hours.
Incubation mixtures consisted of 400 μl PRP, 50 μl of PBS diluent or test compound and 50 μl of PAF agonist. More specifically, 400 μl of PRP was stabilized in a cuvette for 1-2 minutes at 37° C. in the aggregometer to achieve a stable baseline, then 50 μl of PBS or test compound, was added and incubated for 5 minutes before addition of the challenge concentration of PAF ([…], as determined from the dose response curve for PAF for that experiment). Aggregation was monitored for 5 minutes. Samples containing test compound or diluent were run simultaneously for comparison. Test compounds were initially evaluated at a screening concentration of 1E-5M. Those producing ≥ 50% inhibition of the magnitude of aggregation were then reevaluated in a dose response fashion (final concentrations 1E-7M to 5E-5M) and IC50 values were determined. Ki values were also calculated in some cases from [formula] where Ki =inhibitory constant
IC50 =molar concentration of test compound which gives 50% inhibition
[PAF]=molar concentration of PAF used as challenges
EC50 =molar concentration of PAF which gives 50% of maximal aggregation.
The recording equipment consisted of single or dual channel Chronolog aggregometers connected to dual channel 10 MV full scale deflection Omniscribe chart recorders (Houston Instruments). […] The bead suspension was used to set the 0% light transmission mark and clear water was used to set the 100% light transmission mark. These limits defined a full scale deflection. The aggregation traces were analyzed by a digitizing method (C. Kohler and B. Zoltan, J. Pharm. Methods, 12, 113, 1984) with x, y coordinate data stored in a computer file. A suitable program computed parameters of interest such as the magnitude of aggregation.

[1] = IC50 (M) PRP, inhibition of PAF-induced platelet aggregation, PAF challenge 5E-8M
[2] = PAF challenge 5E-8M, read-out: IC50 (M) PRP, inhibition of PAF-induced platelet aggregation
[3] = IC50 (M) PRP, inhibition of PAF-induced platelet aggregation, PAF challenge 1E-7M
[4] = PAF challenge 1E-6M, read-out: IC50 (M) PRP, inhibition of PAF-induced platelet aggregation
[5] = PAF challenge 1E-7M, read-out: IC50 (M) PRP, inhibition of PAF-induced platelet aggregation
[6] = IC50 (M) PRP, inhibition of PAF-induced platelet aggregation, PAF challenge 1E-6M

Sequence of PAF receptor (G1TEI7 1-342): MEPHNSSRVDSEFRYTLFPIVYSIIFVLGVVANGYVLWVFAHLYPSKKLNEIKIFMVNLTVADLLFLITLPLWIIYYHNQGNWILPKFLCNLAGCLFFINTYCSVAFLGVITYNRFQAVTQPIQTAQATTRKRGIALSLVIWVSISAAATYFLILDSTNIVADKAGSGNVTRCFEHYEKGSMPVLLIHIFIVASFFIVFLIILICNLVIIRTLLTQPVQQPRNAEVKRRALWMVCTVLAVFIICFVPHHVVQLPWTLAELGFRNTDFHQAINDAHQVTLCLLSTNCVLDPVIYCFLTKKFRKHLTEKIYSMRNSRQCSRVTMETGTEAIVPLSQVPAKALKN

Structure (SMILES)	IC50 [1] [M]	IC50 [3] [M]	other results
COC(COCc1ccc(OCc2ccccc2)cc1)COP(=O)([O-])Oc1cccc(C[n+]2ccsc2)c1 (stereo not drawn) [3-[[3-[(Hydroxy[2-methoxy-3-[[4-(phenylmethoxy)phenyl]methoxy]propoxy]phosphinyl]oxy]phenyl]methyl)thiazolium, hydroxide, inner salt]	0.0004	–	–
CCCCCCCCCCCCCCCCOCC(COCc1cccc(Cn2ccnc2)c1)OC (stereo not drawn) [1-[[3-[[3-(Hexdecyloxy)-2-methoxypropoxy]methyl]phenyl]methyl]-1H-imidazole]	–	–	IC50 [2]: 5.8e-05 M
CCCCCCCCCCCCCCc1cccc(OCC(COP(=O)([O-])Oc2cccc(C[S+](C)C)c2)OC)c1 (stereo not drawn) [[[3-[[Hydroxy-[2-methoxy-3-(3-tetradecylphenoxy]propoxy]phosphinyl]oxy]-phenyl]methyl]dimethylsulfouium, hydroxide, inner salt]	3.4e-06	2.9e-05	–
COC(CCCOCc1ccccc1)COP(=O)([O-])Oc1cccc(C[n+]2ccsc2)c1 (stereo not drawn) [3-[[3-[[Hydroxy[[5-(phenylmethoxy)-2-methoxypentyl]oxy]phosphinyl]oxy]-phenyl]methyl]thiazolium, hydroxide, inner salt]	0.0001	–	–
COC(COCCCCCCCCOc1ccc(-c2ccccc2)cc1)COP(=O)([O-])Oc1cccc(C[n+]2ccsc2)c1 (stereo not drawn) [3-[[3-[[[3-[[8-([1,1'-Biphenyl]-4-yloxy)octyl]-oxy]-2-methyoxypropoxy]hydroxyphosphinyl]-oxy]phenyl]methyl]thiazolium, hydroxide, inner salt]	–	2.3e-06	–
C=C(C)COC(COCCCCCCCCCCCCCCCC)COP(=O)([O-])Oc1cccc(C[N+](C)(C)C)c1 (stereo not drawn) [3-[[[3-(Hexadecyloxy)-2[(2-methyl-2-propeny)oxy]propoxy]hydroxyphosphinyl]-oxy]- --N, --N, --N-trimethylbenzenemethanaminium, hydioxide, inner salt]	–	4.8e-05	–
CCCCCCCCCCCCCCCCCC(=O)NCC(COCCCCCCCCCCCCCCCC)COP(=O)([O-])Oc1cccc(C[n+]2ccsc2)c1 (stereo not drawn) [3-[[3-[[[(2-[(Hexadecyloxy)methyl]-3-[(1-oxooctadecyl)amino]propoxy]hydroxy-phosphinyl]oxy]phenyl]methyl]thiazolium, hydroxide, inner salt]	4.8e-05	0.00013	–
CCCCCCCCCCCCCCCCOCC(COC(=O)c1cccc(C[n+]2ccsc2)c1)OC (stereo not drawn) [3-[[3-[[3-(Hexadecyloxy)-2-methoxypropoxy]carbonyl]phenyl]methyl]thiazolium, bromide]	–	–	IC50 [4]: 4.9e-05 M; IC50 [5]: 6.1e-06 M; IC50 [2]: 3.6e-06 M
COC(COCc1ccc(OCc2ccc(Cl)cc2)cc1)COP(=O)([O-])Oc1cccc(C[n+]2ccsc2)c1 (stereo not drawn) [3-[[3-[[[3-[[4-[(4-Chlorophenyl)methoxy]phenyl]methoxy]-2-methoxypropoxy]hydroxyphosphinyl]oxy]phenyl]methyl]thiazolium, hydroxide, inner salt]	3e-05	–	–
C=C(C)COC(COCCCCCCCCCCCCCCCC)COP(=O)([O-])Oc1ccccc1C[n+]1ccsc1 (stereo not drawn) [3-[[2-[[[3-(Hexadecyloxy)-2-[(2-methyl-2-propenyl)oxy]propoxy]hydroxyphosphinyl]oxy]phenyl]methyl]thiazolium, hydroxide, inner salt]	2.6e-06	–	–
CCCCCCCCCCCCOc1cccc(OCC(COP(=O)([O-])Oc2cccc(C[n+]3cccc4ccccc43)c2)OC)c1C (stereo not drawn) [1-[[3-[[[3-[3-(Dodecyloxy)-2-methylphenoxy]-2-methoxypropoxy]hydroxyphosphinyl]oxy]phenyl]methyl]quinolinium, hydroxide, inner salt]	7.3e-05	1.2e-05	–
CCCCCCCCCCCCCCCCOCC(COP(=O)([O-])Oc1cccc(C[n+]2ccccc2)c1)OC (stereo not drawn) [1-[[3-[[[3-(Hexadecyloxy)-2-methoxypropoxy]hydroxyphosphinyl]oxy]phenyl]methyl]pyridinium, hydroxide, inner salt]	5.78e-06 to 6e-06	1e-05	IC50 [6]: 0.00018 M
C=C(C)COC(COCCCCCCCCCCCCCCCC)COP(=O)([O-])Oc1cccc(C[n+]2ccsc2)c1 (stereo not drawn) [3-[[3-[[[3-(Hexadecyloxy)-2-[(2-methyl-2-propenyl)oxy]propoxy]hydroxyphosphinyl]oxy]phenyl]methyl]thiazolium, hydroxide, inner salt]	2.1e-06	2.6e-06	IC50 [6]: 3.9e-05 M
CCCCCCCCCCCCOc1cccc(OCC(COP(=O)([O-])Oc2cccc(C[n+]3ccccc3)c2)OC)c1C (stereo not drawn) [1-[[3-[[[3-[3-(Dodecyloxy)-2-methylphenoxy]-2-methoxypropoxy]hydroxyphosphinyl]oxy]phenyl]methyl]pyridinium, hydroxide, inner salt]	1.7e-07	–	–
CCCCCCCCCCCCCCc1cccc(OCC(COP(=O)([O-])Oc2cccc(C[n+]3ccccc3)c2)OC)c1 (stereo not drawn) [1-[[3-[[Hydroxy[2-methoxy-3-(3-tetradecylphenoxy)propoxy]phosphinyl]oxy]phenyl]methyl]pyridinium, hydroxide, inner salt]	4.1e-06	5.4e-06	IC50 [6]: 5.3e-05 M
CCCCCCCCCCOCCOCCOCC(COP(=O)([O-])Oc1cccc(C[n+]2ccsc2)c1)OC (stereo not drawn) [3-[[3-[(1-Hydroxy-4-methoxy-2,6,9,12-tetraoxa-l-phosphadocos-l-yl)oxy]-phenyl]methyl]thiazolium, hydroxide, inner salt, P-oxide]	8.3e-06	–	–
CCCCCCCCCCOCCOCCOCC(COP(=O)([O-])Oc1cccc(C[n+]2csc(C)c2)c1)OC (stereo not drawn) [3-[[3-[[1-Hydroxy-4-methoxy-2,6,9,12-tetraoxa-1-phosphadocosyl]oxy]phenyl]-methyl]-5-methylthiazolium, hydroxide, inner salt, P-oxide]	2.2e-06	3.9e-06	IC50 [6]: 9.4e-05 M
CCCCCCCCCCCCCCCCCCOP(=O)([O-])Oc1cccc(C[n+]2ccccc2)c1 [1-[[3-[[Hydroxy(octadecyloxy)phosphinyl]oxy]phenyl]methyl]pyridinium, hydroxide, inner salt]	4.2e-05	–	–
CCCCCCCCCCCCCCCCCCNC(=O)OCC(COP(=O)([O-])Oc1cccc(C[n+]2ccccc2)c1)OC (stereo not drawn) [3-[[3-[(1-Hydroxy-4-methoxy-7-oxo-2,6-dioxa-8-aza-1-phosphahexacosyl)oxy]phenyl]methyl]pyridinium, hydroxide, inner salt, P-oxide]	4.4e-06	–	–
CCCCCCCCCCCCCCCCOCC(COP(=O)(O)Oc1cccc(C[P+](c2ccccc2)(c2ccccc2)c2ccccc2)c1)OC (stereo not drawn) [[[3-[[[3-(Hexadecyloxy)-2-methoxypropoxy]hydroxyphosphinyl]oxy]phenyl]-methyl]triphenylphosphonium, bromide]	1.4e-05	–	–
CCCCCCCCCCCCCCCCOCC(COC(=O)c1cccc(C[N+](C)(C)C)c1)OC (stereo not drawn) [3-[[3-(Hexadecyloxy)-2-methoxypropoxy]-carbonyl]- --N, --N, --N-trimethylbenzenemethanaminium, bromide]	–	–	IC50 [5]: 3e-05 M; IC50 [2]: 3.1e-05 M
CCCCCCCCCCCCCCCCCCNC(=O)OCC(COP(=O)([O-])Oc1cccc(C[N+](C)(C)C)c1)OC (stereo not drawn) [3-[(1-(Hydroxy-4-methoxy-7-oxo-2,6-dioxa-8-aza-1-phosphahexacosyl)oxy]- --N, --N, --N-trimethylbenzenemethanaminium, hydroxide, inner salt, P-oxide]	0.0001	–	–
CCCCCCCCCCCCCCCCOCC(COCc1cccc(C[n+]2ccsc2)c1)OC (stereo not drawn) [3-[[3-[[3-(Hexadecyloxy)-2-methoxypropoxy]methyl]phenyl]methyl]thiazolium bromide]	–	–	IC50 [4]: 2.6e-05 M; IC50 [5]: 3.7e-06 M; IC50 [2]: 1.3e-06 M
